Assay results reported in US8178490B2, “Polybasic bacterial efflux pump inhibitors and therapeutic uses thereof” (priority 2007, dated 2012).

Assay: Rat serum pharmacokinetics after 1.5-hour IV infusion
Format: in vivo
Details: two-compartment model; for Cmax / clearance: 1.5-hour IV infusion in 0.9% saline, dose (mg/kg) differs per compound; for clearance: read-out: Clearance (free drug clearance) (converted); for pharmacokinetic profile: […] IV infusion in 0.9% saline, total dose 2, 5, 10 or 20 mg/kg
Protocol: In the experiment depicted in Table 7, above, rat serum pharmacokinetics of selected inhibitor compounds was evaluated after 1.5-hour IV infusion of 1.5 ml solution of corresponding efflux pump inhibitor in 0.9% saline. Depending on the concentration used the total infused dose was 2, 5, 10 or 20 mg/kg. A two-compartment model was used to fit the data and calculate PK parameters.

SMILES | Cmax [ng/mL] | clearance [mL/min/kg] | pharmacokinetic profile
NCCN(CCN)C(=O)C[C@H](N)C(=O)N[C@@H](CCc1ccccc1)C(=O)Nc1cnc2ccccc2c1 [Compound 2, 3-[(1S)-2-[bis(2-azaniumylethyl)carbamoyl]-1-{[(1S)-1-carbamoyl-3-phenylpropyl]carbamoyl}ethan-1-aminium]quinolin-1-ium tetrachloride] | 2250 | 217 | particularly attractive pharmacokinetic profiles
Cl.Cl.Cl.Cl.N[C@@H]1CN(C(=O)CC[C@H](N)C(=O)N[C@H](Cc2ccc(C(F)(F)F)cc2)C(=O)Nc2cnc3ccccc3c2)C[C@@H]1N [Compound 30, 3-[(1S)-1-{[(1R)-1-carbamoyl-2-[4-(trifluoromethyl)phenyl]ethyl]carbamoyl}-4-[(3R,4S)-3,4-diazaniumylpyrrolidin-1-yl]-4-oxobutan-1-aminium]quinolin-1-ium tetrachloride] | 7610 | 56 | –
Cl.Cl.Cl.Cl.NCCN(CCN)C(=O)CC[C@H](N)C(=O)N[C@H](Cc1ccc(OC(F)(F)F)cc1)C(=O)Nc1cnc2ccccc2c1 [Compound 31, 3-[(1S)-3-[bis(2-azaniumylethyl)carbamoyl]-1-{[(1R)-1-carbamoyl-2-[4-(trifluoromethoxy)phenyl]ethyl]carbamoyl}propan-1-aminium]quinolin-1-ium tetrachloride] | 21900 | 30 | –
Cl.Cl.Cl.Cl.N[C@@H](CCC(=O)N1C[C@H](N)[C@@H](N)C1)C(=O)N[C@H](Cc1ccc(C(F)(F)F)cc1)C(=O)Nc1cnc2ccccc2c1 [Compound 33, 3-[(1S)-1-{[(1R)-1-carbamoyl-2-[4-(trifluoromethyl)phenyl]ethyl]carbamoyl}-4-[(3S,4S)-3,4-diazaniumylpyrrolidin-1-yl]-4-oxobutan-1-aminium]quinolin-1-ium tetrachloride] | 3980 | 105 | –
Cl.Cl.Cl.Cl.N[C@@H](CCC(=O)N1C[C@H](N)[C@@H](N)C1)C(=O)N[C@H](CCc1ccccc1)C(=O)Nc1cnc2ccccc2c1 [Compound 41, 3-[(1S)-1-{[(1R)-1-carbamoyl-3-phenylpropyl]carbamoyl}-4-[(3S,4S)-3,4-diazaniumylpyrrolidin-1-yl]-4-oxobutan-1-aminium]quinolin-1-ium tetrachloride] | 8100 | 45.3 | –
NCCN(CCN)C(=O)C[C@@H](N)C(=O)N[C@H](CCc1ccccc1)C(=O)Nc1cnc2ccccc2c1 [Compound 44, 3-[(1R)-2-[bis(2-azaniumylethyl)carbamoyl]-1-{[(1R)-1-carbamoyl-3-phenylpropyl]carbamoyl}ethan-1-aminium]quinolin-1-ium tetrachloride] | 2680 | 24.7 | –
Cl.Cl.Cl.Cl.NCCN(CCN)CCC[C@H](N)C(=O)N[C@H](CCc1ccccc1)C(=O)Nc1cnc2ccccc2c1 [Compound 46, 3-[(1S)-4-[bis(2-azaniumylethyl)amino]-1-{[(1R)-1-carbamoyl-3-phenylpropyl]carbamoyl}butan-1-aminium]quinolin-1-ium tetrachloride] | 4000 | 13.5 | particularly attractive pharmacokinetic profiles
Cl.Cl.Cl.Cl.NCCN(CCN)C(=O)CC[C@H](N)C(=O)N[C@H](CCc1ccccc1)C(=O)Nc1cnc2ccccc2c1 [Compound 47, 3-[(1S)-3-[bis(2-azaniumylethyl)carbamoyl]-1-{[(1R)-1-carbamoyl-3-phenylpropyl]carbamoyl}propan-1-aminium]quinolin-1-ium tetrachloride] | 8100 | 28.3 | –
Cl.Cl.Cl.Cl.NCCN(CCN)C(=O)C[C@H](N)C(=O)N[C@H](CCc1ccccc1)C(=O)Nc1cnc2ccccc2c1 [Compound 48, 3-[(1S)-2-[bis(2-azaniumylethyl)carbamoyl]-1-{[(1R)-1-carbamoyl-3-phenylpropyl]carbamoyl}ethan-1-aminium]quinolin-1-ium tetrachloride] | 7200 | 26 | particularly attractive pharmacokinetic profiles
